Source: paper PMC7093131, “Structural and Biomolecular Analyses of Borrelia burgdorferi BmpD Reveal a Substrate-Binding Protein of an ABC-Type Nucleoside Transporter Family” (Infection and Immunity, 2020)

Molecular target: T1, BmpD (rBmpD; LF-rBmpD) (Borreliella burgdorferi, UniProt P0CL55)
T1 construct: signal peptide (residues 1 to 17) removed; N-terminal hexahistidine tag (pET-30a(+)) kept; E. coli BL21(DE3)pLys; 39 kDa; monomer; printed end 323 may be in mature count
T1 sequence (P0CL55 18-341): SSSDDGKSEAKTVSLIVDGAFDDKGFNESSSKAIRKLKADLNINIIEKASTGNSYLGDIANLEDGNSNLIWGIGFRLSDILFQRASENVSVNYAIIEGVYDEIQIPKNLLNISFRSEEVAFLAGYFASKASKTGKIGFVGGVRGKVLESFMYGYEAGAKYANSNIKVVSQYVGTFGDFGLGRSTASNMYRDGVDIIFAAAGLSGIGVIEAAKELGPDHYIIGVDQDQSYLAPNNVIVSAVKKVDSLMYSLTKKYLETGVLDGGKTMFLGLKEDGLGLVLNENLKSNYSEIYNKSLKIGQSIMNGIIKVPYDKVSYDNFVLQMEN
Test: X-ray crystal structure ([…] A) with LC-MS of co-purified ligand; label-free MST on refolded LF-rBmpD
Format: binding
Details: endogenously bound from E. coli expression, crystals at pH 8.0; MST: 500 nM refolded ligand-free protein, single experiment, no Kd displayed

Nc1ncnc2c1ncn2[C@@H]1O[C@H](CO)[C@@H](O)[C@H]1O [adenosine]
X-ray crystal structure (1.43 A) with LC-MS of co-purified ligand; label-free MS: the ligand was a purine nucleoside, which was confirmed to be an adenosine
